Assay results as given in patent publication US5939385A, “Transglutaminase cross-linkable polypeptides and methods relating thereto” (ZymoGenetics, Inc., priority 1995, dated 1999).
No end group written: not given here.

Molecular target: T1, recombinant Factor XIII (rFXIIIa) (Homo sapiens, UniProt P00488)
T1 construct: made in house
T1 sequence (P00488 39-732 limits assumed): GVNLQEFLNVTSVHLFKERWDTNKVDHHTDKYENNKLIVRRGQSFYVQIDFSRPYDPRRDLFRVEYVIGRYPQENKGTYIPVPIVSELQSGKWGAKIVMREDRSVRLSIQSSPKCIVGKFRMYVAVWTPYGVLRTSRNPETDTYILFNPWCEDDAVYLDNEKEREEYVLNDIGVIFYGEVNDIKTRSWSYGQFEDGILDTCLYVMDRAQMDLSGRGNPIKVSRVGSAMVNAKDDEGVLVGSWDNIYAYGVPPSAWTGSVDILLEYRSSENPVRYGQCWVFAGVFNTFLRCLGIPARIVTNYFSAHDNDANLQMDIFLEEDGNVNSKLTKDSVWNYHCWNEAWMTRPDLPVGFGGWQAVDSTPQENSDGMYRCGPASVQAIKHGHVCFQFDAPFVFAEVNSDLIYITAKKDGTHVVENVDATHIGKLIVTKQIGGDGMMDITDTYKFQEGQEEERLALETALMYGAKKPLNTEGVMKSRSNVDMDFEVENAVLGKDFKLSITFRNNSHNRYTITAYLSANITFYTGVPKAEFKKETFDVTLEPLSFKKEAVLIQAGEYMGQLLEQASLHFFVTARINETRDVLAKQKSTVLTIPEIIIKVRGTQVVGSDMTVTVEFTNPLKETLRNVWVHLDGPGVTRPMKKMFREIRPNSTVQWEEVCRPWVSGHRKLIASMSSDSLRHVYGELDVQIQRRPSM
Assay: Factor XIII cross-linking assay of test polypeptide substrates (HPLC area % vs time)
Format: biochemical
Conditions: for Monomer Consumption d[S]/dt (rate of substrate utilization) / Crosslinking d(2[S-])/dt (rate of monomer incorporation into dimers) / Hydrolysis d[-NH3]/dt (hydrolysis = deamidation): initial rate, 2mM substrate, 40 ug/ml rFXIIIa (preactivated), 2.0 U/ml Thrombin, 2.5 mM CaCl2, pH 7.4; for Monomer Consumption d[S]/dt (rate of substrate utilization): 125 mM NaCl, 50 mM TrisHCl; for Hydrolysis %: share of hydrolysis (deamidation) relative to hydrolysis plus crosslinking, same reaction conditions
Procedure: Polypeptides are screened for the ability to form transglutaminase-catalyzed cross-links using a cross-linking assay as described in more detail below. […] Each reaction receives 50 mM CaCl2 to a final concentration of 2.5 mM. A negative control for each test substrate is also prepared in which the reaction lacks a transglutaminase (e.g., Factor XIII). A positive control of the fibrinogen polypeptide (The-Ile-Gly-Glu-Gly-Gln-Gln-His-His-Leu-[…]-Gln-Ala-Gly-Asp-Val) is used for each set of reactions. The reactions are initiated by the addition of 40 μg/ml of transglutaminase (e.g., recombinant Factor XIII) followed by 0.1 unit of bovine thrombin (Enzyme Research Laboratories, Inc., South Bend, Ind.) to each solution, except the negative controls. The reactions are incubated in a 37° C. water bath. A time course of 10 μl samples are taken from each reaction at 0 minutes, 30 minutes, 60 minutes, 120 minutes and overnight. The reactions are stopped by boiling for one minute. After the reactions are terminated, each sample is diluted to 50 μl with 40 μl of TBS buffer (120 mM NaCl, 50 mM Tris (pH 7.6)) and the samples are prepared for HPLC analysis.
Each sample is chromatographed on a C-18 reverse phase HPLC column (Vydac, Hesperia, Calif. or the like) using a gradient of 0-40% B in 30 minutes (Solvent A: 0.05% trifluoroacetic acid (TFA) in water and Solvent B: 0.045% TFA in 80% acetonitrile, 20% water) on a Hewlett Packard 1090 Series II HPLC or the like. The signal is detected at a wavelength of 215 nm. The area % of each reaction product is collected and plotted versus time to determine the rates of polypeptide utilization dimer formation and multimer formation. A deamidation ratio is determined by dividing the deamidation rate by the dimerization rate.
The ability of the test polypeptides to form Factor XIII-induced multimers, and the susceptibility of the polypeptides to deamidation were assessed using the method described in detail below.
Approximately 0.5 mg of lyophilized polypeptide was dissolved in 50 mM Tris, 125 mM NaCl (pH 7.6) to give a final concentration of 2 mM by weight. […] Each test polypeptide solution received 50 mM CaCl2 to a final concentration of 2.5 mM. For each reaction, a negative control lacking Factor XIII was included. A positive control of the fibrinogen polypeptide Thr-Ile-Gly-Glu-Gly-Gln-Gln-His-His-Leu-Gly-Gly-Ala-Lys-Gln-Ala-Gly-Asp-Val was used for each set of reactions. The reactions were initiated by the addition of 40 μg/ml of recombinant Factor XIII followed by 0.1 unit of bovine thrombin (Enzyme Research Laboratories, Inc.) to each solution, except the negative controls. The reactions were incubated in a 37° C. water bath. Samples of 10 μl were taken from each reaction at 0 minutes, 30 minutes, 60 minutes, 120 minutes and overnight. The reactions were stopped by boiling for one minutes. The samples were diluted to 50 μl TBS buffer (120 mM NaCl, 50 mM Tris (pH 7.6)), and the samples were prepared for HPLC analysis.
Each reaction was chromatographed on a C-18 reverse phase HPLC column (Vydac, Hesperia, Calif., or the like) using a gradient of 0-40% B in 30 minutes (solvent A: 0.05% TFA in water and Solvent B: 0.045% TFA in 80% acetonitrile/20% water) on a Hewlett Packard 1090 Series II HPLC. The signal was detected at a wavelength of 215 nm. The area % of each reaction product was collected and plotted versus time to determine the rates of polypeptide utilization and dimer formation. A deamidation ratio was determined by dividing the deamidation rate by the dimerization rate. […] The abbreviations used in Table 1 are as follows: d[S]/dt indicates the rate of substrate utilization, d[S2 ]/dt indicates the rate of dimer formation and (-NH2 /S2) indicates the relative rates of deamidation to dimerization. The initial rates were normalized to that of the fibrinogen polypeptide Thr-Ile-Gly-Glu-Gly-Gln-Gln-His-His-Leu-Gly-Gly-Ala-Lys-Gln-Ala-Gly-Asp-Val. […]

Substance	Monomer Consumption d[S]/dt (rate of substrate utilization)	Crosslinking d(2[S-])/dt (rate of monomer incorporation into dimers)	Hydrolysis d[-NH3]/dt (hydrolysis = deamidation)	Hydrolysis % [%]
GEGQHHLGGAKQAG [-- GEGQ-- HHLGGAKQAG--]	-13.1 uM (monomer)/min	11.2 uM (monomer)/min	0.4 uM (monomer)/min	3
TIGEGQQHHLGGAKQAGDV [TIGEGQQHHLGGAKQAGDV, Thr-Ile-Gly-Glu-Gly-Gln-Gln-His-His-Leu-Gly-Gly-Ala-Lys-Gln-Ala-Gly-Asp-Val, reference compound]	-20.0 uM (monomer)/min	16.4 uM (monomer)/min	5.2 uM (monomer)/min	24
GQHHLGAKQ [-- GQ-- HHLG-- AKQ--]	-4.7 uM (monomer)/min	4.9 uM (monomer)/min	0.0 uM (monomer)/min	0
TIGEGQHHLGGAKQAGDV [TIGEGQ-- HHLGGAKQAGDV]	-12.8 uM (monomer)/min	11.4 uM (monomer)/min	0.6 uM (monomer)/min	5
VPGVGGQHHLGGAKQVPGVG [VPGVGGQ-- HHLGGAKQVPGVG]	-12.8 uM (monomer)/min	11.8 uM (monomer)/min	0.0 uM (monomer)/min	0
GVGGQHHLGGAKQVP [GVGGQ-- HHLGGAKQVP]	-9.8 uM (monomer)/min	7.6 uM (monomer)/min	0.0 uM (monomer)/min	0
GQHHLGGAKQ [-- GQ-- HHLGGAKQ--, Gly-Gln-His-His-Leu-Gly-Gly-Ala-Lys-Gln]	-6.9 uM (monomer)/min	6.2 uM (monomer)/min	0.0 uM (monomer)/min	0
IGEGQHHLGGAKQAGD [-- IGEGQ-- HHLGGAKQAGD--]	-12.5 uM (monomer)/min	14.1 uM (monomer)/min	-1.4 uM (monomer)/min	0
EGQHHLGGAKQA [-- EGQ-- HHLGGAKQA--]	-10.8 uM (monomer)/min	9.8 uM (monomer)/min	0.0 uM (monomer)/min	0
GQHHLGGAKQG [GQ-- HHLGGAKQG]	-4.4 uM (monomer)/min	4.4 uM (monomer)/min	0.0 uM (monomer)/min	0
VPGVGQHHLGGAKVPGVG [VPGVGQ-- HHLGGAKVPGVG]	-20.8 uM (monomer)/min	15.8 uM (monomer)/min	1.8 uM (monomer)/min	10
TIGEGQHHLGAKQAGDV [TIGEGQ-- HHL-- GAKQAGDV]	-8.4 uM (monomer)/min	3.6 uM (monomer)/min	5.4 uM (monomer)/min	60
EGQHHLGAKQAG [-- EGQ-- HHL-- GAKQAG--]	-6.0 uM (monomer)/min	3.0 uM (monomer)/min	5.4 uM (monomer)/min	64
VPGVGLSQSKVGVPGVG [VPGVGLSQSKVGVPGVG]	-32.0 uM (monomer)/min	15.0 uM (monomer)/min	12.5 uM (monomer)/min	45
GVGVPGQHHLGGAKQGVGVP [GVGVPGQ-- HHLGGAKQGVGVP]	-7.3 uM (monomer)/min	5.6 uM (monomer)/min	1.7 uM (monomer)/min	23
LSQSKVG [LSQSKVG]	-5.2 uM (monomer)/min	6.8 uM (monomer)/min	1.2 uM (monomer)/min	15
VGQHHLGGAKVPG [VGQ-- HHLGGAKVPG]	-18.0 uM (monomer)/min	16.2 uM (monomer)/min	0.0 uM (monomer)/min	0
